From patent US5583000A, “Protease-binding compounds and methods of use” (priority 1993, dated 1996) come the findings set out here.

Where two headings read alike, the source gives them in different places. Where only a bound is given, the exact number is not on record here.

In one data set the target is HIV-1 protease (Human immunodeficiency virus type 1 group M subtype B, UniProt P03369). The data set is described as follows: biochemical. Conditions: for IC50: HIV-1 Protease IC50 (μM) 1M NaCl.
In a further data set the target is T1, HIV-2 protease (Human immunodeficiency virus type 2 subtype A, UniProt P04584).
T1 construct: the coding region of the 99-amino acid protease; made in house; host or cells: Saccharomyces cerevisiae strain AB110, plasmid pHIV2PR115
T1 sequence (P04584 514-612 limits assumed): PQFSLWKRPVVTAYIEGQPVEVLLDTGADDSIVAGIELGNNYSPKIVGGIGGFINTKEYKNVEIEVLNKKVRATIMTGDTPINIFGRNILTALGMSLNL
The data set is described as follows: biochemical. Conditions: 1M NaCl. The procedure:
The decapeptide was synthesized by conventional solid-state methods. Reactions were carried out and fractionated by HPLC. Conversion of the decapeptide to the two pentapeptides was quantitated by integration of the peak areas and comparison to product standard curves.
Enzymatic Inhibition. […] Each data point was done in triplicate and initial enzyme rates were fit to the Michaelis-Menten equation using a nonlinear regression program ("Enzfitter" from Biosoft).

Experimental for in vitro: Cytotoxicity. The MTT assay was performed as follows:
The cells were seeded in 96-well plates and grown overnight to near 50% confluency. A serial dilution (1 to 500 μM) of each compound in culture media was prepared and 250 μL/well was added in duplicate. The cells were allowed to grow for various periods of time (6, 24, 48 hours) and any precipitation of compounds in the wells was noted. The assay was performed by removing 200 μL of the culture media and adding 25 μL of MTT solution (2 mg/mL in phosphate buffered saline (PBS)). This was incubated for 4 hours at 37° C. and live cells began to turn purple while the solution remained yellow. To quench the reaction and solubilize the reaction product, 160 μL of acidified isopropanol (4 mL 1N HCl for 96 mL alcohol) were added and the resulting mixture was mixed vigorously to dissolve purple crystals. Absorbance was determined at 550-570 nm on an ELISA plate reader within 0.5-2 hours. […] To obtain the LD50 values for each compound, the concentration at which the absorbance is haft of that for the untreated cells was determined.

Take `C=C(CCCC1(O)CCC(O)(c2ccc(Cl)cc2)CC1)c1ccccc1` (centres unmarked) [UCSF41, 4-(4'-phenyl-4-pentenyl)-1-(p-chlorophenyl)-1,4-cyclohexanediol]: the midpoint of inhibition on HIV-1 protease (1M NaCl), the IC50, lay at 160 µM. In addition, at HIV-1 protease (LD50/IC50), the “HIV-1 Protease Therapeutic Index (LD50 /IC50)” value came to 0.6. The compound also gave a CC50 at 6 h in the data set “in vitro” of 90 µM. The solubility (commonly the dissolved amount per volume that the medium holds) in the data set “Solubility” was > 500 µM.
In the same order, the values of `OC1(CCCCc2ccccc2)CCC(O)(c2ccc(Cl)cc2)CC1` (centres unmarked) [UCSF54] are 2500 µM, < 0.08, 190 µM and > 500 µM.
For the compound `OC1(c2ccc(Cl)cc2)CCN(CCCNCc2ccccc2)CC1` [UCSF55, 3-[4-(4-chlorophenyl)-4-hydroxypiperidinyl]-N-(benzyl)propylamine], at HIV-1 protease, the “HIV-1 Protease Therapeutic Index (LD50 /IC50)” value is reported as < 0.02. For the same compound, the half-maximal inhibitory concentration (IC50) (usually the concentration that gives 50% inhibition) against HIV-1 protease was 2500 µM; against HIV-2 protease, > 2500 µM. The same compound showed a CC50 at 4 h in “in vitro” of 60 µM. Also, the solubility in the data set “physchem” is > 500 µM.
Turning to `OC1(c2ccc(Cl)cc2)CCN(CCCC(O)(c2ccccc2)c2ccccc2-c2ccccc2)CC1` (centres unmarked) [UCSF56], the 50% inhibitory concentration (IC50) against HIV-1 protease was 20 µM; against HIV-2 protease, 11 µM. The CC50 at 4 h in “in vitro” is 20 µM. In “physchem”, the solubility is < 500 µM.
`OC1(c2ccc(Cl)cc2)CCN(CCCC(O)(c2ccccc2)c2cccc(-c3ccccc3)c2)CC1` (centres unmarked) [UCSF57, 4-(4-(p-chlorophenyl)-4-hydroxypiperidinyl)-1-phenyl-1-(3'-phenylphenyl)-butan-1-ol]: the concentration for half-maximal inhibition (IC50) is 10 µM at HIV-1 protease and 14 µM against HIV-2 protease. Moreover, the CC50 at 4 h in the data set “in vitro” amounted to 25 µM. In the data set “physchem”, the solubility was < 500 µM.
Take `COCCN(CCN1CCC(O)(c2ccc(Cl)cc2)CC1)Cc1ccccc1` [UCSF58, 2-[4-(4-chlorophenyl)-4-hydroxypiperidinyl]-N-benzyl-N-(2-methoxyethyl)ethylamine]: the “HIV-1 Protease Therapeutic Index (LD50 /IC50)” value on HIV-1 protease is listed as < 0.3. The 50% inhibitory concentration (IC50) against HIV-1 protease worked out at 300 µM; against HIV-2 protease, 290 µM. The CC50 at 4 h in the data set “in vitro” was 110 µM. For the same compound, the solubility in the data set “physchem” is > 500 µM.
As for `OC1(c2ccc(Cl)cc2)CCN(CCCC2(c3cccc(-c4ccccc4)c3)SCCS2)CC1` [UCSF59], the half-maximal inhibitory concentration (IC50) against HIV-1 protease was 8 µM; at HIV-2 protease it was 7 µM. Also, the CC50 at 4 h in the data set “in vitro” came to 45 µM. Besides, in “physchem”, the solubility is < 500 µM.
As for `O=C(CCCN1CCC(CO)(c2ccccc2)CC1)c1ccc(F)cc1` [UCSF60], the “HIV-1 Protease Therapeutic Index (LD50 /IC50)” value on HIV-1 protease was > 0.2. In addition, the IC50 against HIV-1 protease is 2500 µM; against HIV-2 protease, > 2500 µM. Also, the CC50 at 4 h in “in vitro” is > 500 µM. Besides, the solubility in the data set “physchem” was > 500 µM.
With `OC1(c2ccc(Cl)cc2)CCN(CCCN(CCc2ccccc2)Cc2ccccc2)CC1` [UCSF61, 3-[4-(4-chlorophenyl)-4-hydroxypiperidinyl]-N-benzyl-N-(2-phenyl-ethyl)-propylamine], on HIV-1 protease, the “HIV-1 Protease Therapeutic Index (LD50 /IC50)” value is given as 0.2-0.4 and half-maximal inhibition (IC50) required 220 µM. For the same compound, the IC50 at HIV-2 protease is 230 µM. The compound also yielded a CC50 at 6 h in the data set “in vitro” of 40 µM. Also, the solubility in the data set “physchem” is < 500 µM.
On to `O=C(CCCN1CCC(O)(c2ccc(Cl)cc2)CC1)c1ccccc1` [UCSF62], for which the results for the 50% inhibitory concentration (IC50) on HIV-1 protease and on HIV-2 protease were 100 µM and 40 µM, respectively. Besides, the CC50 at 6 h in the data set “in vitro” turned out to be 380 µM. In “physchem”, the solubility is < 250 µM.
The like results for `OC1(c2ccc(Cl)cc2)CCN(CCCN(Cc2ccccc2)Cc2ccc(-c3ccccc3)cc2)CC1` [UCSF63] were, in that order, 18 µM, 15 µM, 25 µM and > 500 µM.
In the case of `O=C(CCCC1(O)CCC(O)(c2ccc(Cl)cc2)CC1)c1ccc(F)cc1` (centres unmarked) [UCSF65, 4-(4'-p-fluorophenyl-4'-butanone)-1-p-chlorophenyl-1,4-cyclohexanediol], in “in vitro”, the CC50 at 6 h was 250 µM. Moreover, in the data set “Solubility”, the solubility is < 100 µM.
As for `O=C(Cc1ccccc1)N(CCCN1CCC(O)(c2ccc(Cl)cc2)CC1)Cc1ccccc1` [UCSF66], on HIV-1 protease, the “HIV-1 Protease Therapeutic Index (LD50 /IC50)” value was 0.3 and the IC50 was determined as 70 µM. Besides, half-maximal inhibition against HIV-2 protease (IC50) required 48 µM. Also, the CC50 at 6 h in the data set “in vitro” was 25 µM. The solubility in “physchem” is < 250 µM.
The like results for `O=C(CCC[N+]1([O-])CCC(O)(c2ccc(Cl)cc2)CC1)c1cccc(-c2ccccc2)c1` (centres unmarked) [UCSF67] were, in that order, 0.3, 80 µM, 10 µM, > 25 µM and > 25 µM.
Consider `C#CCC(CCN1CCC(O)(c2ccc(Cl)cc2)CC1)C(=O)c1ccc(F)cc1` (centres unmarked) [UCSF68], for which the values for the 50% inhibitory concentration (IC50) at HIV-1 protease and against HIV-2 protease were 105 µM and 48 µM, respectively. In “in vitro”, this compound returned a CC50 at 6 h of 100 µM. In the data set “physchem”, the solubility was < 500 µM.
The like results for `C#CCC(CC#C)(CCN1CCC(O)(c2ccc(Cl)cc2)CC1)C(=O)c1ccc(F)cc1` [UCSF69] were, in that order, 50 µM, 60 µM, 220 µM and < 100 µM.
With `OC(CC#CC1(O)CCN(Cc2ccccc2)CC1)c1ccccc1` (centres unmarked) [UCSF72], the IC50 against HIV-1 protease (1M NaCl) was determined as 750 µM. Also, the CC50 at 6 h in the data set “in vitro” was determined as 260 µM. The solubility in “Solubility” was > 500 µM.
For `CC(CCc1ccccc1)N1CCC(O)(c2ccc(Cl)cc2)CC1` (centres unmarked) [UCSF73], the half-inhibitory concentration (IC50) against HIV-1 protease stood at 100 µM; at HIV-2 protease it was 188 µM. In “in vitro”, this compound had a CC50 at 6 h of 360 µM. The solubility in the data set “physchem” is < 500 µM.
Turning to `OC1(C2(c3ccc(Cl)cc3)SCCCS2)CCN(CCCC2(c3ccc(F)cc3)SCCS2)CC1` [UCSF75], the half-inhibitory concentration (IC50) against HIV-1 protease (1M NaCl) worked out at 50 µM; at HIV-2 protease, 13 µM. In addition, in “in vitro”, the CC50 at 6 h was found to be 200 µM. In addition, the solubility in “Solubility” was < 50 µM.
Compound `OC(CC=CC1(O)CCN(Cc2ccccc2)CC1)c1ccccc1` (centres unmarked) [UCSF76] displayed an IC50 on HIV-1 protease (1M NaCl) of 1650 µM. Further, the CC50 at 6 h in the data set “in vitro” stood at 440 µM. For the same compound, in the data set “Solubility”, the solubility was > 500 µM.
Consider `OC(CCCC1(O)CCN(Cc2ccccc2)CC1)c1ccccc1` (centres unmarked) [UCSF77], for which the IC50 against HIV-1 protease (1M NaCl) came to 2500 µM; against HIV-2 protease, 500 µM. The same compound yielded a CC50 at 6 h in “in vitro” of 500 µM. For the same compound, in “Solubility”, the solubility is > 500 µM.
For the compound `OC1(c2ccc(Cl)cc2)CCN(CCCC2(c3ccc(F)cc3)OCCS2)CC1` (centres unmarked) [UCSF78], the IC50 against HIV-1 protease worked out at 39 µM; against HIV-2 protease it was 167 µM. The same compound yielded a CC50 at 6 h in “in vitro” of 35 µM. For the same compound, in “physchem”, the solubility is > 500 µM.
The like results for `CC[C@@H]1CSC(CCCN2CCC(O)(c3ccc(Cl)cc3)CC2)(c2ccc(F)cc2)O1` (some centres unmarked) [UCSF79] were, in that order, 30 µM, 68 µM, 35 µM and > 250 µM.
The like results for `CC[C@H]1CSC(CCCN2CCC(O)(c3ccc(Cl)cc3)CC2)(c2ccc(F)cc2)O1` (some centres unmarked) [UCSF80] were, in that order, 33 µM, 58 µM, 40 µM and > 250 µM.
Turning to `O=C(c1ccc(N2CCC(O)(c3ccc(Cl)cc3)CC2)cc1)C1CC1` [UCSF81], the results for the IC50 against HIV-1 protease (1M NaCl) and against HIV-2 protease were 200 µM and 1000 µM, respectively. Also, on HIV-1 protease (LD50/IC50), the “HIV-1 Protease Therapeutic Index (LD50 /IC50)” value was > 1.25. In addition, in the data set “in vitro”, the CC50 at 6 h is > 250 µM. Moreover, the solubility in the data set “Solubility” is > 250 µM.
In the case of `C=CCCCC1(C(=O)c2ccc(N3CCC(O)(c4ccc(Cl)cc4)CC3)cc2)CC1` [UCSF82], the half-inhibitory concentration (IC50) at HIV-1 protease (1M NaCl) was determined as 100 µM; against HIV-2 protease, 800 µM. Further, the CC50 at 6 h in the data set “in vitro” is > 250 µM. Further, the solubility in “Solubility” was < 100 µM.
